{"source": "paper PMC7114128", "about": "(Antiviral Research, 2009)", "key": {"[1]": {"tested_on": "wtSARS-CoV strain PUMC01 F5", "type": "cell-based, SARS-CoV"}, "in vitro": {"experiment": "in vitro", "conditions": "human"}, "[2]": {"tested_on": "HIV/SARS-CoV S pseudovirus", "experiment": "organism not typed", "conditions": "HepG2"}, "[3]": {"tested_on": "HIV/SARS-CoV S pseudovirus"}, "TfR": {"tested_on": "TfR", "type": "cell-based"}, "ACE2": {"tested_on": "ACE2", "type": "cell-based, human"}, "CD59": {"tested_on": "CD59", "type": "cell-based"}}, "note": "Read-outs that look alike come from different tables or passages of the source."}
{"compound": "O=C(O)C=Cc1ccccc1O", "note": "[2-Hydroxycinnamic acid]", "values": [{"measurement": "Anti-SARS-CoV activity in wtSARS-CoV infection", "setting": "[1]", "value": "did not show any anti-SARS-CoV activities"}, {"measurement": "CC50", "setting": "in vitro", "value": "2.5 ± 0.122", "unit": "mM"}, {"measurement": "IC50", "setting": "[2]", "value": "0.3 ± 0.013", "unit": "mM"}]}
{"compound": "OCCc1ccccc1", "note": "[2-Phenylethanol (phenethy alcohol), 2-Phenylethanol]", "values": [{"measurement": "Anti-SARS-CoV activity in wtSARS-CoV infection", "setting": "[1]", "value": "did not show any anti-SARS-CoV activities"}, {"measurement": "CC50", "setting": "in vitro", "value": "24.5 ± 1.53", "unit": "mM"}, {"measurement": "IC50", "setting": "[2]", "value": "4.1 ± 0.199", "unit": "mM"}]}
{"compound": "CC(=O)c1ccccc1O", "note": "[2′-Hydroxyacetophenone]", "values": [{"measurement": "SI (CC50/IC50)", "setting": "[3]", "value": 1}, {"measurement": "CC50", "setting": "in vitro", "value": "1.8 ± 0.071", "unit": "mM"}, {"measurement": "IC50", "setting": "[2]", "value": "1.8 ± 0.102", "unit": "mM"}]}
{"compound": "COc1ccc(C=CC(=O)O)cc1OC", "note": "[3,4-Dimethoxycinnamic acid]", "values": [{"measurement": "SI (CC50/IC50)", "setting": "[3]", "value": 2}, {"measurement": "CC50", "setting": "in vitro", "value": "10 ± 0.62", "unit": "mM"}, {"measurement": "IC50", "setting": "[2]", "value": "5 ± 0.233", "unit": "mM"}]}
{"compound": "C=CCc1ccc(OC)cc1", "note": "[4-Allylanisole]", "values": [{"measurement": "CC50", "setting": "in vitro", "value": "8 ± 0.563", "unit": "mM"}, {"measurement": "IC50", "setting": "[2]", "value": "8.4 ± 0.65", "unit": "mM"}]}
{"compound": "COc1cc(C=CC=O)ccc1O", "note": "[4-Hydroxy-3-methoxy cinnamaldehyde]", "values": [{"measurement": "SI (CC50/IC50)", "setting": "[3]", "value": 2.3}, {"measurement": "CC50", "setting": "in vitro", "value": "0.7 ± 0.043", "unit": "mM"}, {"measurement": "IC50", "setting": "[2]", "value": "0.3 ± 0.013", "unit": "mM"}]}
{"compound": "COc1cc(C=CC(=O)O)ccc1O", "note": "[4-Hydroxy-3-methoxycinnamic acid]", "values": [{"measurement": "SI (CC50/IC50)", "setting": "[3]", "value": 2}, {"measurement": "CC50", "setting": "in vitro", "value": "10 ± 0.555", "unit": "mM"}, {"measurement": "IC50", "setting": "[2]", "value": "5 ± 0.312", "unit": "mM"}]}
{"compound": "O=c1cc(O)c2ccccc2o1", "note": "[4-Hydroxycoumarin]", "values": [{"measurement": "SI (CC50/IC50)", "setting": "[3]", "value": 1}, {"measurement": "CC50", "setting": "in vitro", "value": "10.3 ± 0.66", "unit": "mM"}, {"measurement": "IC50", "setting": "[2]", "value": "10.3 ± 0.5", "unit": "mM"}]}
{"compound": "O=c1ccc2ccc(O)cc2o1", "note": "[7-Hydroxycoumarin]", "values": [{"measurement": "SI (CC50/IC50)", "setting": "[3]", "value": 4.3}, {"measurement": "CC50", "setting": "in vitro", "value": "10.7 ± 0.56", "unit": "mM"}, {"measurement": "IC50", "setting": "[2]", "value": "2.5 ± 0.172", "unit": "mM"}]}
{"compound": "Oc1cc(O)c2c(c1)O[C@@]1(c3ccc(O)c(O)c3)Oc3cc(O)c4c(c3[C@@H]2[C@H]1O)O[C@H](c1ccc(O)c(O)c1)[C@H](O)[C@H]4c1c(O)cc(O)c2c1O[C@H](c1ccc(O)c(O)c1)[C@H](O)C2", "note": "[Cinnamtannin B1]", "values": [{"measurement": "IC50 with virus pretreated (1 h) compared with drug added simultaneously (0 h)", "setting": "[1]", "value": "not different"}, {"measurement": "CC50", "setting": "in vitro", "value": "0.242 ± 0.0148", "unit": "mM"}, {"measurement": "IC50", "setting": "[2]", "value": "0.0329 ± 0.0028", "unit": "mM"}, {"measurement": "Effect on TfR expression", "setting": "TfR", "value": "up-regulated"}, {"measurement": "ACE2 expression versus untreated control (positive percentages and MFI)", "setting": "ACE2", "value": "no significant difference"}]}
{"compound": "CC(=O)OC/C=C/c1ccccc1", "note": "[Cinnamylacetate]", "values": [{"measurement": "CC50", "setting": "HepG2 cells", "value": "7.1 ± 0.42", "unit": "mM"}, {"measurement": "IC50", "setting": "[3]", "value": "7.1 ± 0.35", "unit": "mM"}, {"measurement": "SI (CC50/IC50)", "setting": "[3]", "value": 1}]}
{"compound": "CCOC(=O)/C=C/c1ccccc1", "note": "[Ethylcinnamate]", "values": [{"measurement": "SI (CC50/IC50)", "setting": "[3]", "value": 2.0}, {"measurement": "CC50", "setting": "in vitro", "value": "14.1 ± 1.22", "unit": "mM"}, {"measurement": "IC50", "setting": "[2]", "value": "7.1 ± 0.532", "unit": "mM"}]}
{"compound": "C=CC(C)(C)c1cc(/C=C/C(=O)c2ccc(O)cc2)c(OC)cc1O", "note": "[Licochalcone-A]", "values": [{"measurement": "CC50", "setting": "HepG2 cells", "value": "0.03 ± 0.001", "unit": "mM"}, {"measurement": "IC50", "setting": "[3]", "value": "0.03 ± 0.003", "unit": "mM"}, {"measurement": "SI (CC50/IC50)", "setting": "[3]", "value": 1}]}
{"compound": "Oc1cc(O)c2c(c1)O[C@H](c1ccc(O)c(O)c1)[C@H](O)[C@H]2c1c(O)cc(O)c2c1O[C@H](c1ccc(O)c(O)c1)[C@@H](O)C2", "note": "[Procyanidin B1]", "values": [{"measurement": "IC50 with virus pretreated (1 h) compared with drug added simultaneously (0 h)", "setting": "[1]", "value": "not different"}, {"measurement": "Effect on CD59 expression", "setting": "CD59", "value": "did not affect"}, {"measurement": "CC50", "setting": "in vitro", "value": "0.656 ± 0.0367", "unit": "mM"}, {"measurement": "IC50", "setting": "[2]", "value": "0.161 ± 0.0203", "unit": "mM"}, {"measurement": "Effect on TfR expression", "setting": "TfR", "value": "did not affect"}, {"measurement": "ACE2 expression versus untreated control (positive percentages and MFI)", "setting": "ACE2", "value": "no significant difference"}]}
{"compound": "O=C/C=C/c1ccccc1", "note": "[Trans-cinnamaldehyde]", "values": [{"measurement": "SI (CC50/IC50)", "setting": "[3]", "value": 1}, {"measurement": "CC50", "setting": "in vitro", "value": "0.2 ± 0.014", "unit": "mM"}, {"measurement": "IC50", "setting": "[2]", "value": "0.2 ± 0.016", "unit": "mM"}]}
{"compound": "O=C(O)/C=C/c1ccccc1", "note": "[Trans-cinnamic acid]", "values": [{"measurement": "Anti-SARS-CoV activity in wtSARS-CoV infection", "setting": "[1]", "value": "did not show any anti-SARS-CoV activities"}, {"measurement": "CC50", "setting": "HepG2 cells", "value": "22.4 ± 1.23", "unit": "mM"}, {"measurement": "IC50", "setting": "[3]", "value": "3 ± 0.178", "unit": "mM"}]}
{"compound": "Cc1ccc(C(C)C)cc1", "note": "[p-Cymene]", "values": [{"measurement": "SI (CC50/IC50)", "setting": "[3]", "value": 1}, {"measurement": "CC50", "setting": "in vitro", "value": "75 ± 4.35", "unit": "mM"}, {"measurement": "IC50", "setting": "[2]", "value": "75 ± 5.55", "unit": "mM"}]}
{"compound": "Oc1cc(O)c2c(c1)O[C@H](c1ccc(O)c(O)c1)[C@H](O)[C@H]2c1c(O)cc(O)c2c1O[C@H](c1ccc(O)c(O)c1)[C@H](O)C2", "note": "[procyanidins B2, procyanidin B2]", "values": [{"measurement": "Anti-SARS-CoV activity in wtSARS-CoV infection", "setting": "[1]", "value": "did not inhibit"}, {"measurement": "Effect on TfR expression", "setting": "TfR", "value": "nor up-regulate"}]}
{"compound": "Isoeugenol", "values": [{"measurement": "IC50", "setting": "[3]", "value": "2 ± 0.142", "unit": "mM"}]}
